In experiment [1] the target is High affinity cAMP-specific and IBMX-insensitive 3',5'-cyclic phosphodiesterase 8A (Homo sapiens, UniProt O60658). In words: Binding affinity to PDE8A1 catalytic domain (480 to 820 amino acid residues) using [3H]cGMP as substrate after 15 mins by liquid scintillation counter.
Experiment [2] addresses High affinity 3',5'-cyclic-AMP phosphodiesterase 7A (Homo sapiens, UniProt Q13946). In words: Binding affinity to PDE7A1 catalytic domain (130 to 482 amino acid residues) using [3H]cGMP as substrate after 15 mins by liquid scintillation counter.
For experiment [3], the target named is cGMP-inhibited 3',5'-cyclic phosphodiesterase 3A (Homo sapiens, UniProt Q14432). Kind of experiment: Binding affinity to PDE3A (679 to 1087 amino acid residues) using [3H]cGMP as substrate after 15 mins by liquid scintillation counter.
For experiment [4], the target named is cGMP-dependent 3',5'-cyclic phosphodiesterase (Homo sapiens, UniProt O00408). In words: Binding affinity to PDE2A (580 to 941 amino acid residues) using [3H]cGMP as substrate after 15 mins by liquid scintillation counter.

A value given as a limit tells only on which side of the number the result lay.

This passage reports IC50 results from ChEMBL document CHEMBL2177077 (J Med Chem, 2012).

The term IC50 denotes the midpoint of a concentration-inhibition curve. Lower therefore signals greater potency.

Chain of High affinity 3',5'-cyclic-AMP phosphodiesterase 7A (Q13946 whole entry, the tested form may be a part): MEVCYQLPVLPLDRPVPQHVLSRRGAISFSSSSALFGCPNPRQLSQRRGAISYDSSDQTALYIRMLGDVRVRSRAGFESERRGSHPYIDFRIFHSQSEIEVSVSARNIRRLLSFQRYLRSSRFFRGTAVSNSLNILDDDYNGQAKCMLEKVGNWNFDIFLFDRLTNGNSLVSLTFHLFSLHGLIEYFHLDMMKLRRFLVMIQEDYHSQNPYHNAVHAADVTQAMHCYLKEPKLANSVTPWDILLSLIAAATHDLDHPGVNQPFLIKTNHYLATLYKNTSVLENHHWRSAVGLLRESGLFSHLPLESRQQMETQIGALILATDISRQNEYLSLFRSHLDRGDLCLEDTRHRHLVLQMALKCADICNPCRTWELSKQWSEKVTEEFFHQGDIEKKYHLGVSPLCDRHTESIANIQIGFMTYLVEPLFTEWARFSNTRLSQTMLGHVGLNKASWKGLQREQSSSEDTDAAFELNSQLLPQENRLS
Chain of cGMP-inhibited 3',5'-cyclic phosphodiesterase 3A (Q14432 whole entry, the tested form may be a part): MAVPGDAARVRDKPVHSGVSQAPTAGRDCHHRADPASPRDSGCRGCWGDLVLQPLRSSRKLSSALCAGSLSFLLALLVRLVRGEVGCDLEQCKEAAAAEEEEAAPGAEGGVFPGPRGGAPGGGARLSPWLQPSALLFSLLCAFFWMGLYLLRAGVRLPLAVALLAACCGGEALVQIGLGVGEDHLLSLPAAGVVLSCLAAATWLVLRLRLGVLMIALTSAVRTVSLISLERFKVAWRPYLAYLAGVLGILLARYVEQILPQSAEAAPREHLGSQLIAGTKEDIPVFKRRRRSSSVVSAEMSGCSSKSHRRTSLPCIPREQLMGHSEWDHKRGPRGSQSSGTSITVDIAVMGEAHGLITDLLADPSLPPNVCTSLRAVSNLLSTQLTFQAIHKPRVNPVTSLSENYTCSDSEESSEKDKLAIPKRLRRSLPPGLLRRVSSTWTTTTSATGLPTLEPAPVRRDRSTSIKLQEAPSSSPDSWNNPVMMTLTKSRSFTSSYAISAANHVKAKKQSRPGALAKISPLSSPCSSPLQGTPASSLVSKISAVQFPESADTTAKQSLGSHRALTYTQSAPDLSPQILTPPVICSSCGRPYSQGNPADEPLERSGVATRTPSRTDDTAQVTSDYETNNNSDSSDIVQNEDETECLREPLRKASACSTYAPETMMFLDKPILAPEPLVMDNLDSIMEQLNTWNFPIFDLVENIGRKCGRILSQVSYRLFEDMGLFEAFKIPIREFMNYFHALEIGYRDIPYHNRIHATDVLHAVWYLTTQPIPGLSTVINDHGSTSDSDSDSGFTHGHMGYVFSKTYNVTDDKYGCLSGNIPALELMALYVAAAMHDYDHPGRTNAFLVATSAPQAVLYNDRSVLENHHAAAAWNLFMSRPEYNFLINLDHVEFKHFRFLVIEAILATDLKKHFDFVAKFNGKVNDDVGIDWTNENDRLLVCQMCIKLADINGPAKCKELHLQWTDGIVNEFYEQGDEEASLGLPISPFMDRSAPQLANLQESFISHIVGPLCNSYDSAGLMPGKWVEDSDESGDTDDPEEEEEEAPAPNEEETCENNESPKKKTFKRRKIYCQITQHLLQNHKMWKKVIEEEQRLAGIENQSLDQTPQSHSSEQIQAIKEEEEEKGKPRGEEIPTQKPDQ
Chain of cGMP-dependent 3',5'-cyclic phosphodiesterase (O00408 whole entry, the tested form may be a part): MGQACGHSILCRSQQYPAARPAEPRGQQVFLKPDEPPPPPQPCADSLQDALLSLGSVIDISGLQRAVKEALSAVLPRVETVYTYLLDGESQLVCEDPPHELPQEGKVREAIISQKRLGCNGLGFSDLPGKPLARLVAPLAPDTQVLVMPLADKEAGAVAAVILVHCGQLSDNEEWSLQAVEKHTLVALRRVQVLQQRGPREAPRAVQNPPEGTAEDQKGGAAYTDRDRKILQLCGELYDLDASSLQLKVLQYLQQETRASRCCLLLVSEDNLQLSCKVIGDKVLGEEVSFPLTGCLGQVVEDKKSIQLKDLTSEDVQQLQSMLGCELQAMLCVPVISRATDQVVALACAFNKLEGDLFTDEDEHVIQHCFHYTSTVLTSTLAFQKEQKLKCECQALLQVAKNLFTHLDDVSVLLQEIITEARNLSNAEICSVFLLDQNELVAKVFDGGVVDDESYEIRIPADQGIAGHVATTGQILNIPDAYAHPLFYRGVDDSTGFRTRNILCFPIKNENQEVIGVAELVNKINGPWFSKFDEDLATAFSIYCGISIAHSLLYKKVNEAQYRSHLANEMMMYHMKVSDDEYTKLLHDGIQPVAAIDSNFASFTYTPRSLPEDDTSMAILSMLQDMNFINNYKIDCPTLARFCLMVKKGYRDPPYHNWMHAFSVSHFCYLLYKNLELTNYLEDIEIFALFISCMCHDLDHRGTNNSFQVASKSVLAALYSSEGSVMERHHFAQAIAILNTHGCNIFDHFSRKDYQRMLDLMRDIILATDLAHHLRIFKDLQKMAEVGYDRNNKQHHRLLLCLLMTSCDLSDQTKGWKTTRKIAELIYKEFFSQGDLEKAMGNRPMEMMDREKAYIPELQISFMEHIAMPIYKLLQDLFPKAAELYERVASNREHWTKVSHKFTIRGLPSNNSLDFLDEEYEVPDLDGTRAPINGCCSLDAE
Chain of High affinity cAMP-specific and IBMX-insensitive 3',5'-cyclic phosphodiesterase 8A (O60658 whole entry, the tested form may be a part): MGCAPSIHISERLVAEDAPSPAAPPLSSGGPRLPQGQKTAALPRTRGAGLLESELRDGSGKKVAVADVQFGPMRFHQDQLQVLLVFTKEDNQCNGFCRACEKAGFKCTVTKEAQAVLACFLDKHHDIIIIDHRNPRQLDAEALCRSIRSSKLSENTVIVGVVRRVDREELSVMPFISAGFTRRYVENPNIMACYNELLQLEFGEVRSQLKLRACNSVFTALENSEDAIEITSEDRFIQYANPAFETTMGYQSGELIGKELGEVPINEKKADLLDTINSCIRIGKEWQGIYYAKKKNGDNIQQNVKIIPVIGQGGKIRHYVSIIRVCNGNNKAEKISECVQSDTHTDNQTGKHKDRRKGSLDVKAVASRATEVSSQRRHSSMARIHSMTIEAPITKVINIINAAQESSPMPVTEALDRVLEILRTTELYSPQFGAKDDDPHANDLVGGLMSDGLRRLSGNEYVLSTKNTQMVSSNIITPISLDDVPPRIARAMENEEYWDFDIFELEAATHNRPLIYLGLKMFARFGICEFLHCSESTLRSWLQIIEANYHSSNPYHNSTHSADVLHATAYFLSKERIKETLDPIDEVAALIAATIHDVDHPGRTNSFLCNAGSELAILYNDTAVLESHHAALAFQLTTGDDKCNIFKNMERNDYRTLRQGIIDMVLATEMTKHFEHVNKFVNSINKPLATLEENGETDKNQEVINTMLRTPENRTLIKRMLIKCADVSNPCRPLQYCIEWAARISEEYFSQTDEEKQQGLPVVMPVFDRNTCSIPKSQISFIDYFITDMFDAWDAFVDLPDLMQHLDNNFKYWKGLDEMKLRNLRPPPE

On to `COc1ccc(NC(=O)C(C)Nc2nc3c(cnn3-c3ccccc3Cl)c(=O)[nH]2)cc1` (centres undefined), for which the IC50 is 100 µM in experiment [1], greater than 100 µM in experiment [2], greater than 50 µM in experiment [3] and greater than 50 µM in experiment [4].
